Data as given in US20140219925A1, “POLYMER PARTICLES OR NANO-VECTORS AND USE THEREOF AS A DRUG AND/OR DIAGNOSTIC AGENT” (INSERM (Institut National de la Sante et de la Recherche …, priority 2011, published 2014).
“And” between values parts separate entries of the source, which are not always exact repeats. Identical values can stand only once. Like-named read-outs stand apart in the source and are kept apart here. Values belong to the compound of their own block, whether it stands above or below them.

What was measured:
HDAC = test: BRET measurement of histone acetylation / HDAC inhibition in Met-5A cells; assay type: cell-based
Experimental: Cellular model: Met-5A cells (ATCC)
Seed 200000 cells per well of a 6-well plate in 2 ml of RPMI 10% FCS penicillin/streptomycin and glutamine.
D1: Transfection: phRluc-C1 BrD+pEYFP-C1 histone H3
600 ng of phRluc-C1 BrD+1500 ng of pEYFP-C1 histone H3 in 100 μl of crude RPMI.
After 6 h at 37° C., begin the treatments by adding 20 μl of treatment medium (RPMI 10% FCS penicillin, streptomycin and L-glutamine) comprising the test compounds at a ten-fold concentration.
Add 5 μl per well of coelenterazine h (Interchim) at 25 μM.
Parameters: Reading at 485 nm for 1 second and then reading at 530 nm for 1 second.
((value 530 nm phRluc-C1 BrD+pEYFP-C1 histone H3/value 480 nm phRluc-C1 BrD+pEYFP-C1 histone H3)-(value 530 nm phRluc-C1 BrD/value 480 nm phRluc-C1 BrD))×1000
Unit: milli BRET unit (mBu)
These experiments make it possible to evaluate the release of the HDAC inhibitors (HDI) in the live cells.

[1] = Hydrolysis in buffer solutions, release monitored by HPLC; assay type: physicochemical; settings: for half-life at 1 mg/ml: 1 mg/ml in acetonitrile 80% / buffer solution 20%
Experimental: The compound is put into an acid medium (citrate buffer for pH 4.3 and […] buffer for pH 7.3) and release of CI-994 is monitored by HPLC. The hydrolysis of the compounds of the invention was carried out in buffer solutions (citrate buffer for pH 4.3 and […] for pH 7.3) at pH=4.3 and at pH=7.3. The concentration of the samples is 1 mg/ml in the solution: acetonitrile at 80% and buffer solution at 20%. […] In some cases the measurements were prolonged for 2 or 3 weeks, or even a month.

EC50 (HDAC; read-out: EC50 (BRET), average value±standard deviation of three independent experiments): 0.86 ± 1.14 µM
Compound: CC(=O)Nc1ccc(C(=O)Nc2ccccc2N)cc1 [CI-994, reference compound]

time without hydrolysis ([1]; pH 7.3): at least 1 month
Compound: N^1-((1-(3,6,9,12-tetraoxapentadec-14-ynyl)-1H-1,2,3-triazol-4-yl)bis(4-fluorophenyl)methoxy)phenyl [Compound 21g]

EC50 (HDAC; average value±standard deviation of three independent experiments, read-out: EC50 (BRET)): 7.17 µM and 6.2 µM
half-life at 1 mg/ml ([1]; pH 4.3 citrate buffer, read-out: t1/2 pH 4.3): 0.5 h
half-life at 1 mg/ml ([1]; pH 7.3 Trisma buffer, read-out: t1/2 pH 7.3 (converted)): 86.4 h
Compound: C#CCOCCOCCOCCOCCn1cc(C(Nc2ccccc2NC(=O)c2ccc(NC(C)=O)cc2)(c2ccccc2)c2ccccc2)nn1 [Compound 9c, N-(2-((1-(3,6,9,12-tetraoxapentadec-14-ynyl)-1H-1,2,3-triazol-4-yl)diphenylmethylamino)phenyl)-4-acetamidobenzamide]
